Experimental data as given in ChEMBL document CHEMBL1125944, “Imidazo[1,2-a]piperazines as mechanistic inhibitors of serine proteinases” (Bioorg Med Chem Lett, 1991).
pIC50: −log10 of the molar value.

Biological target: T1, Neutrophil elastase (Homo sapiens, UniProt P08246)
T1 sequence (P08246 whole entry): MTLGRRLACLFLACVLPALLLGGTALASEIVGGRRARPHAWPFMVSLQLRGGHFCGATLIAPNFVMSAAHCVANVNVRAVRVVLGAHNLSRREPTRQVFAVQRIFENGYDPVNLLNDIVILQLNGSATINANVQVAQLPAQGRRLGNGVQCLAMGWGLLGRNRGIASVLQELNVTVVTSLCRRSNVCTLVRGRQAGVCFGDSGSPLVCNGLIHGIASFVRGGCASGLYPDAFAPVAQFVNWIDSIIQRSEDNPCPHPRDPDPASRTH
Experiment: Compound was tested for its inhibitory activity against human leukocyte Elastase (HLE)

## CC(C)C1N=C2CN(C3Cc4ccccc4C3)C(=O)[C@H](C(C)C)N2C1(O)C(F)(F)F (stereo partly specified)
  pIC50: 5.06
